In publication PMC9889419 (Pharmacological Reports, 2022):
Structures can show the parent of a compound that is named as a salt. Where two headings read alike, the source gives them in different places. Marks after values point to notes of the source that are not given here.

Experiments:
CYP2A6 = biological target: T1, CYP2A6 (Homo sapiens, UniProt P11509); experiment: Human cytochrome P450 inhibition (human liver microsomes); format: in vitro ADME
T1 construct: tissue celsis X008064-LSL; host or cells: human liver microsomes
T1 sequence (P11509 1-494): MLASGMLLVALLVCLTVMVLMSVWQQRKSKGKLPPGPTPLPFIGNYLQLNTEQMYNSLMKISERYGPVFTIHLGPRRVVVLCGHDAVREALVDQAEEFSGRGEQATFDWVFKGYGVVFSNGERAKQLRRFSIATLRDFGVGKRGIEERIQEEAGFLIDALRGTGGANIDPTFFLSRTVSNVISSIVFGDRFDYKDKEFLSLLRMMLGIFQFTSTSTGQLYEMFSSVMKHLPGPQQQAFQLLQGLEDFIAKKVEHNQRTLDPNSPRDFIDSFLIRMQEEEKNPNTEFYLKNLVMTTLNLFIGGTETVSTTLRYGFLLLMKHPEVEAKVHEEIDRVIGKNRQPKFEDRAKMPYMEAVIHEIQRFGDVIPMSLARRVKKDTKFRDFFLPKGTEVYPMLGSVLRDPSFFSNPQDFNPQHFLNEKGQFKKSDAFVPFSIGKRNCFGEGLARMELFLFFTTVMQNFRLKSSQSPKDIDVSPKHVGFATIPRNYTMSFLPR
Description: (§1) The selective reactions utilized for each enzyme were as follows: CYP1A2—phenacetin deethylation, CYP2A6—coumarin 7-hydroxylation, CYP2B6—7-ethoxy-4-trifluoromethyl coumarin O-deethylation, CYP2C9—diclofenac 4-hydroxylation, CYP2C19—S-mephenytoin 4-hydroxylation, CYP2D6—bufuralol 1’-hydroxylation, CYP2E1—chlorzoxazone 6-hydroxylation, CYP3A4—testosterone 6β-hydroxylation. For inhibitory evaluation, human liver microsomes and the tested compound (added in methanol as a solvent) were incubated under aerobic conditions with cytochrome P450 isozyme-selective substrates and excess NADPH at 37 °C. Incubations were for time periods over which the reaction in the absence of the compound, were determined to be linear, and proportional to the protein concentration. The human liver microsomes used were selected from the bank of those commercially available to be especially rich in the amount of the cytochrome P450 isozyme under investigation. However, it is important to note that the microsomes contained all the other isozymes in addition, and if reaction/substrate was less than specific, the other isozymes may have contributed to a minor extent to the enzyme activity determined. Following incubation, the reaction was terminated, an internal standard added, the metabolic products extracted and separated by reverse phase HPLC. Each assay was performed in duplicate, and the mean value calculated. The HPLC elutions were monitored by UV absorbance for all CYP reactions except those for CYP2A6, CYP2B6 and CYP2D6 where fluorescence monitoring was employed. Quantification was by comparison with authentic metabolites.

CYP2B6 = biological target: T2, CYP2B6 (Homo sapiens, UniProt P20813); experiment: as above; format: in vitro ADME
T2 construct: tissue celsis M008085JTA; host or cells: human liver microsomes
T2 sequence (P20813 whole entry): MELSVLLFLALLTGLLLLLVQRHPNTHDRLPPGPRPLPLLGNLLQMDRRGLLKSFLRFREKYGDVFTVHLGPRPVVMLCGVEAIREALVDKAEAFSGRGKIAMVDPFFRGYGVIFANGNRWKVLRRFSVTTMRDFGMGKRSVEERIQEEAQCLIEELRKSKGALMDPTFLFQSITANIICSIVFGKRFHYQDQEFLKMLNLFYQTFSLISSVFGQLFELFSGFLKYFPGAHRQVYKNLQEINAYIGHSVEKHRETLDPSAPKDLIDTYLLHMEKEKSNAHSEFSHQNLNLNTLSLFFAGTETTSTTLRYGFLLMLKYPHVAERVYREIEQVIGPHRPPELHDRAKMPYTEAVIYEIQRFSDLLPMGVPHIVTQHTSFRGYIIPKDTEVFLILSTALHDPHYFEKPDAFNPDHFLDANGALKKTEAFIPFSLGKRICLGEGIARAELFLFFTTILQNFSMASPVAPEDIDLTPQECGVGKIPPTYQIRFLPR
Description: as §1

CYP3A4 = biological target: T3, CYP3A4 (Homo sapiens, UniProt P08684); experiment: as above; format: in vitro ADME
T3 construct: The human liver microsomes used were selected from the bank of those commercially available; from tissue; host or cells: human liver microsomes
T3 sequence (P08684 whole entry): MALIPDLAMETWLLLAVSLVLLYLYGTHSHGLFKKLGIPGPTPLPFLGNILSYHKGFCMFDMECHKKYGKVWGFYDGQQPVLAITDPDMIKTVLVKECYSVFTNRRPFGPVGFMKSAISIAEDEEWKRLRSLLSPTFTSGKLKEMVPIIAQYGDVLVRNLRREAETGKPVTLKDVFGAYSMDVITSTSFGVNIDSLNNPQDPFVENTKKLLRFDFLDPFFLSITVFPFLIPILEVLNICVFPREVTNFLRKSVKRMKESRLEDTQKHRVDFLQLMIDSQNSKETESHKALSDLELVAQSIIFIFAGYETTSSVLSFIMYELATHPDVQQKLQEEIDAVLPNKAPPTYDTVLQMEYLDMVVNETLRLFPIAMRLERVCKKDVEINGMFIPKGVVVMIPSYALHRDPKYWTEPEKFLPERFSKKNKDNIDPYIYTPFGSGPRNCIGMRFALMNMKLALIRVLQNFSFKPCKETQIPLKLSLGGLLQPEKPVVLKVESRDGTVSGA
Description: as §1

CYP2C19 = biological target: T4, CYP2C19 (Homo sapiens, UniProt P33261); experiment: as above; format: in vitro ADME
T4 construct: tissue Puracyp #011; host or cells: human liver microsomes
T4 sequence (P33261 whole entry): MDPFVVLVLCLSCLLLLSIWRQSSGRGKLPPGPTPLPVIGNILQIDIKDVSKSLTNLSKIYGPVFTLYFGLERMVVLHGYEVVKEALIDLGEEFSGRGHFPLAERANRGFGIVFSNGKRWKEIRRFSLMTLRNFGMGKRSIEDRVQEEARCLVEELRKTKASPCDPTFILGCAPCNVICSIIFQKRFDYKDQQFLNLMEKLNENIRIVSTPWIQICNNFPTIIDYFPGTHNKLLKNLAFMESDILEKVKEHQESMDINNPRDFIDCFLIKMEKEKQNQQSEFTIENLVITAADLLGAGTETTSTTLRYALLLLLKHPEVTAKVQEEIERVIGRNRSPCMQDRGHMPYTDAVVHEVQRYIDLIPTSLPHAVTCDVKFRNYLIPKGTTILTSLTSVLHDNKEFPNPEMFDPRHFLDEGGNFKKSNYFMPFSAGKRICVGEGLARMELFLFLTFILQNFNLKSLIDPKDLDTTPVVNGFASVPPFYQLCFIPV
Description: as §1

CYP2C9 = biological target: T5, CYP2C9 (Homo sapiens, UniProt P11712); experiment: as above; format: in vitro ADME
T5 construct: from tissue; host or cells: human liver microsomes
T5 sequence (P11712 whole entry): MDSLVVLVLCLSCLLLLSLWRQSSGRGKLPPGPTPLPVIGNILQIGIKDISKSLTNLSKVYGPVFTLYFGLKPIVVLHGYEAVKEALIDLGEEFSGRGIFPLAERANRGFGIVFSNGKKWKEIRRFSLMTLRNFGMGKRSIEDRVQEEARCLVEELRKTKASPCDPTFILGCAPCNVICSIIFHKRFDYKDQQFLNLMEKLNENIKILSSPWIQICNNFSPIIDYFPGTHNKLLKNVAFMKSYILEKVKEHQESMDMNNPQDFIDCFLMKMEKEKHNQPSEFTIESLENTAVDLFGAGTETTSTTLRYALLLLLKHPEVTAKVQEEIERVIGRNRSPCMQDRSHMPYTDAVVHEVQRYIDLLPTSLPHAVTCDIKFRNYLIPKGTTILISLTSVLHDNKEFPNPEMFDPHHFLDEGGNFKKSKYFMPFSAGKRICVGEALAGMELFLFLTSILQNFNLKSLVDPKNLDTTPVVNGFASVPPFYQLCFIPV
Description: as §1

CYP1A2 = biological target: T6, CYP1A2 (Homo sapiens, UniProt P05177); experiment: as above; format: in vitro ADME
T6 construct: tissue celsis F008085-CST; host or cells: human liver microsomes
T6 sequence (P05177 1-516): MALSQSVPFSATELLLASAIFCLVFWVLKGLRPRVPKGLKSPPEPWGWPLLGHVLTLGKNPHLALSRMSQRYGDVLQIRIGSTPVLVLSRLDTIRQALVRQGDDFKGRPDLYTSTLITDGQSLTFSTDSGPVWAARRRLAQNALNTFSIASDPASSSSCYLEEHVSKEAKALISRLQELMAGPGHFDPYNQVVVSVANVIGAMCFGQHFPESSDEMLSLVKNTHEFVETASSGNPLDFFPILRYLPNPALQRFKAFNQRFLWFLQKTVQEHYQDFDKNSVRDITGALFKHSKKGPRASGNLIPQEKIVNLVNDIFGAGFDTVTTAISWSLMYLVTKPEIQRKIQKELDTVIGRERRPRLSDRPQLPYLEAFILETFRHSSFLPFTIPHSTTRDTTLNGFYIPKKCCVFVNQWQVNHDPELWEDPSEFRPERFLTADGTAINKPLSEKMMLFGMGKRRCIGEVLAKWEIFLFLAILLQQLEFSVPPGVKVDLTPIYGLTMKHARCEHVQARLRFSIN
Description: as §1

guinea pigs = experiment: Corneal anesthesia; format: in vivo
Description: A. Corneal anesthesia. […] The corneal reflex was examined by irritation of right eye conjunctiva (studied eye) and a left eye conjunctiva (control eye) by horsehair. The strength of local anesthetic activity was determined from the moment of solution instillation to the moment of reflex return. The presence or lack of corneal reflex were assessed. The eye conjunctiva irritation was done 6 times (every 5 s) with the interval of 5 min during the first 30 min [31].

Tissue distribution = format: in vivo, rats; conditions: for t0.5λz / Cmax / MRT / Tmax / Kp / k el: 5 mg/kg iv; for Kp: read-out: Kp (tissue-to-plasma AUC ratio); for k el: read-out: λz (converted)
Description: Pharmacokinetic study design. Male Wistar rats (250–300 g) bred in-house from progenitors obtained from Charles River Laboratories (Sulzfed, Germany) were used in this study. […] Moreover, this compound dissolved in the same solvent was administered orally (po) by oral gavage at two doses (50 and 100 mg/kg) (n = 4). Blood samples were collected from the catheter at various time points up to 5 h. […] The animals were anaesthetized (50/7.5 mg/kg ketamine/xylazine, ip) and sacrificed by decapitation at 5, 15, 30, 60, 120, 180, and 300 min after compound administration (n = 4 per time point). Blood was collected into heparinized tubes and organs such as liver, brain, lungs, kidneys, and heart were harvested. The blood samples were centrifuged at 4000 rpm for 10 min (EBA 12R, Hettich, Germany). Plasma and organs were stored at − 80 °C until analysis.
Before analysis, tissue samples were homogenized in phosphate-buffered saline, pH 7.4 (1:4, w/v) with a tissue homogenizer (TH220; Omni International, Inc., Warrenton, VA, USA). Plasma (100 μL) or homogenate samples (500 μL) were mixed with an internal standard (IS) solution (R-( +)-propranolol, 4 μg/mL in methanol). Then, 20 μL of sodium carbonate (0.125 M) was added to each tube and the samples were extracted with 3 mL of diethyl ether by vortexing for 1 min. After centrifugation (3000 rpm, 15 min), the organic phase was transferred to a new tube and evaporated to dryness under a gentle stream nitrogen at 37 °C in a water bath. The dry residue was reconstituted in 100 μL of acetonitrile. Subsequently, 50 μL of 0.2 M borate buffer (pH = 7.0) and 50 μL of 6 mM FMOC-Cl solution in acetonitrile were added. […] The reaction was stopped by the addition of 0.1 M solution of glycine in water (30 μL) and vortexing for 1 min. The reaction mixture was transferred directly into the autosampler vials. The chromatographic system (Merck-HITACHI, Japan) consisted of an L-2485 spectrofluorimetric detector operating at the excitation and emission wavelengths of 267 and 316 nm, respectively, an L-2130 pump, an L-2350 column oven, and an L-2200 autosampler. The EZChrom Elite Client/Server version 3.2 (Agilent Technologies Inc.) was used for data acquisition and processing. […] The column temperature was maintained at 50 °C. The mobile phase consisted of a mixture of acetonitrile and water (67:33, v/v), and pumped at a flow rate of 1 mL/min.
Pharmacokinetic data analysis. Plasma and tissue concentration versus time profiles were analyzed by the non-compartmental approach in Phoenix WinNonlin v. 6.3 software (Pharsight Corporation, Mountain View, CA, USA). The peak concentration (Cmax) and the time to reach Cmax (tmax) were obtained directly from individual concentration–time profiles. The initial concentration (C0) after an iv dosing was obtained by extrapolation to zero time. The linear trapezoidal rule was applied to calculate the areas under the concentration–time curve (AUC) from the time of dosing to the last measured data point (AUC0-t) or infinity (AUC0-∞). The terminal slope (λz) was estimated by linear regression and the terminal half-life (t0.5λz) was calculated as ln2/λz. The volume of distribution based on the terminal phase (Vz) was calculated as: Dose/(λz ∙ AUC0-∞), whereas clearance (CL) was obtained from the following equation: Dose/AUC0-∞. The mean residence time (MRT) was defined as: AUMC0-∞/AUC0-∞, where AUMC is the area under the first moment curve. The absolute bioavailability (Fa) was calculated according to the equation: (AUCpo./Dosepo)/(AUCiv/Doseiv).
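Throughout, for Cmax: organ homogenates in PBS analysed by HPLC after FMOC-Cl derivatization, non-compartmental analysis, Kp as tissue over plasma AUC, half-life taken as ln2 divided by λz.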
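Throughout, for concentration in rat brain (approximated): organ homogenates in PBS analysed by HPLC after FMOC-Cl derivatization, non-compartmental analysis, Kp as tissue over plasma AUC, half-life taken as ln2 divided by λz.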
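Throughout, for concentration in rat brain: organ homogenates in PBS analysed by HPLC after FMOC-Cl derivatization, non-compartmental analysis, Kp as tissue over plasma AUC, half-life taken as ln2 divided by λz.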
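Throughout, for t0.5λz: organ homogenates in PBS analysed by HPLC after FMOC-Cl derivatization, non-compartmental analysis, Kp as tissue over plasma AUC, half-life taken as ln2 divided by λz.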

CCC(CO)NCCOc1c(C)cccc1Cl (stereo not drawn) [Compound 4, R,S-2-((2-(2-chloro-6-methylphenoxy)ethyl)amino)butan-1-ol]
Inhibition type (CYP2A6): Mixed/competitive
Ki (CYP2A6): 371 µM
% inhibition of 500 µM concentration (CYP2A6; 500 µM, substrate at 10 µM): 44 (substrate at 10 µM) %
Inhibition type (CYP2B6): Weak inhibition
% inhibition of 500 µM concentration (CYP2B6; 500 µM, substrate at 25 µM): 69 (substrate at 25 µM) %
Inhibition type (CYP3A4): Weak inhibition
% inhibition of 500 µM concentration (CYP3A4; 500 µM, substrate at 200.0 µM): 52 (substrate at 200.0 µM) %
Inhibition type (CYP2C19): Mixed/competitive
Ki (CYP2C19): 54 µM
% inhibition of 500 µM concentration (CYP2C19; 500 µM, substrate at […]): 80 (substrate at 150.0 µM) %
Inhibition type (CYP2C9): Slight inhibition
% inhibition of 500 µM concentration (CYP2C9; 500 µM, substrate at 400 µM): 19 (substrate at 400 µM) %
Inhibition type (CYP1A2): Mixed/competitive
Ki (CYP1A2): 23 µM
% inhibition of 500 µM concentration (CYP1A2; 500 µM, substrate at 2 µM): 65 (substrate at 2 µM) %

CCC(CO)NCCOc1c(C)cccc1Cl (stereo not drawn) [KM-408, R,S-2-((2-(2-chloro-6-methylphenoxy)ethyl)amino)butan-1-ol hydrochloride]
Inhibition of pain reaction (guinea pigs; 0.5%, 5 min): 94.4*** %
Inhibition of pain reaction (guinea pigs; 0.5%, 30 min): 8.3%
Inhibition of pain reaction (guinea pigs; […], 5 min): 80.5*** %
corneal anesthesia: active at (guinea pigs; guinea pigs): 0.125%
t0.5λz (Tissue distribution; Brain): 28.56 min
t0.5λz (Tissue distribution; Heart): 41.30 min
t0.5λz (Tissue distribution; Kidneys): 16.23 min
t0.5λz (Tissue distribution; Liver): 41.99 min
t0.5λz (Tissue distribution; Lungs): 30.84 min
concentration in rat brain (approximated) (Tissue distribution; 2 h after iv, tissue density 1 g/mL assumed): ~2.2*10^–7 M
concentration at 2 h (Tissue distribution; male, Wistar, rat, brain, 5 mg/kg, 2 h after iv administration): 64.9 ng/g
Cmax (Tissue distribution; male, Wistar, rat, Brain): 1770 ng/g
MRT (Tissue distribution; male, Wistar, rat, Brain): 37.9 min
Tmax (Tissue distribution; male, Wistar, rat, Brain): 5 min
Kp (Tissue distribution; male, Wistar, rat, Brain): 0.83
k el (Tissue distribution; male, Wistar, rat, Brain): 0.0004 s⁻¹
Cmax (Tissue distribution; male, Wistar, rat, Heart): 494 ng/g
MRT (Tissue distribution; male, Wistar, rat, Heart): 58.5 min
Tmax (Tissue distribution; male, Wistar, rat, Heart): 15 min
Kp (Tissue distribution; male, Wistar, rat, Heart): 0.38
k el (Tissue distribution; male, Wistar, rat, Heart): 0.000283 s⁻¹
Cmax (Tissue distribution; male, Wistar, rat, Kidneys): 1950 ng/g
MRT (Tissue distribution; male, Wistar, rat, Kidneys): 25.3 min
Tmax (Tissue distribution; male, Wistar, rat, Kidneys): 5 min
Kp (Tissue distribution; male, Wistar, rat, Kidneys): 0.62
k el (Tissue distribution; male, Wistar, rat, Kidneys): 0.000717 s⁻¹
Cmax (Tissue distribution; male, Wistar, rat, Liver): 161 ng/g
MRT (Tissue distribution; male, Wistar, rat, Liver): 113 min
Tmax (Tissue distribution; male, Wistar, rat, Liver): 5 min
Kp (Tissue distribution; male, Wistar, rat, Liver): 0.14
k el (Tissue distribution; male, Wistar, rat, Liver): 0.000283 s⁻¹
Cmax (Tissue distribution; male, Wistar, rat, Lungs): 4350 ng/g
MRT (Tissue distribution; male, Wistar, rat, Lungs): 46.9 min
Tmax (Tissue distribution; male, Wistar, rat, Lungs): 5 min
Kp (Tissue distribution; male, Wistar, rat, Lungs): 1.76
k el (Tissue distribution; male, Wistar, rat, Lungs): 0.000383 s⁻¹
